Measurements reported in patent US9095535B2, “GABA release-regulating agent in cerebellum” (KOREA INSTITUTE OF SCIENCE AND TECHNOLOGY, priority 2009, dated 2015).

What was measured:
Best1 channel = target: T1, Best1 channel (Mus musculus, UniProt O88870); type: cell-based; details: NPPB 50 μM; naïve GFAP-GFP mice; ramp protocol, Vh=−70 mV
T1 construct: from tissue; host or cells: mouse cerebellar slices / sections (Bergmann glial cells)
T1 sequence (O88870 1-551): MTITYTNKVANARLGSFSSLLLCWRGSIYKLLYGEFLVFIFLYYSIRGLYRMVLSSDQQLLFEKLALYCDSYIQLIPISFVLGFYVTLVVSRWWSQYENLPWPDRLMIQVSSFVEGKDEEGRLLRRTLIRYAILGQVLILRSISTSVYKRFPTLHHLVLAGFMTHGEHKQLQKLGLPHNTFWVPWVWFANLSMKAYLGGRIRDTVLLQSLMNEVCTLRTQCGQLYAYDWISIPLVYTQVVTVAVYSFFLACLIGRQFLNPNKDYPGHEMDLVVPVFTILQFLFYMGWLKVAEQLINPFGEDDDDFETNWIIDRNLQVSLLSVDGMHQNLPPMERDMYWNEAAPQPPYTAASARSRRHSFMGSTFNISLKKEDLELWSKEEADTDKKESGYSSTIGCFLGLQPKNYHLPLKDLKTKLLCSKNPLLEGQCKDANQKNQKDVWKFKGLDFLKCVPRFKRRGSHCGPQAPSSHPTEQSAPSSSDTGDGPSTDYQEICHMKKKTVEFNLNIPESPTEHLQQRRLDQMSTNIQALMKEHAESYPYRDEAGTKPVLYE
Procedure: (§1) Brain slices were prepared as described in Rossi et al., 2003. For slice recording, either approximately P28 days old or more than 8 weeks old mice were used. Animals were deeply anesthetized with halothane. After decapitation, the brain was quickly excised from the skull and submerged in ice-cold cutting solution (in mM): 250 Sucrose, 26 NaHCO3, 10 D(+)-Glucose, 4 MgCl2, 3 myo-inositol, 2.5 KCl, 2 Sodium pyruvate, 1.25 NaH2PO4, 0.5 Ascorbic acid 0.1 CaCl2, 1 Kynurenic acid, pH 7.4. All solutions were gas-treated with 95% O2-5% CO2. After trimming both sides of vermis, several parasagittal slices with […] thicknesses containing cerebellar lobes were cut using a microtome (Leica VT 1000) and transferred to extracellular ACSF solution (in mM); 126 NaCl, 24 NaHCO3, 1 NaH2PO4, 2.5 KCl, 2.5 CaCl2, 2 MgCl2, 10 D(+)-Glucose, pH 7.4. Slices were incubated for one hour at least at room temperature.
For recording, slices were transferred to an electrophysiological recording chamber (RC-26G, Warner Instruments) which is continuously superfused with ASCF (artificial cerebrospinal fluid, sigma) solution (flow rate; 2 ml/min) and controlled by flower controller (Synaptosoft) and a vacuum pump (Charles Austen, model Capex 8C). […] Fluorescence images were viewed with mercury lamp (Olympus, U-RFL-T). […]

cerebellar granule cells = test: Whole-cell patch clamp of tonic GABA current in cerebellar granule cells; type: cell-based, mouse
Procedure: as §1
For recording, slices were transferred to an electrophysiological recording chamber (RC-26G, Warner Instruments) which is continuously superfused with ASCF (artificial cerebrospinal fluid, sigma) solution (flow rate; 2 ml/min) and controlled by flower controller (Synaptosoft) and a vacuum pump (Charles Austen, model Capex 8C). Slice chamber was mounted on the stage of an upright microscope (Olympus, Japan) and viewed with an ×60 water immersion objective with differential interference contrast and infrared optics. Cellular morphologies were visually identified by Imaging Workbench 6.0 (INDEC Systems, Inc), camera controller (Hamamatsu, C4742-95), and light microscope controller (Olympus, TH4-200). Fluorescence images were viewed with mercury lamp (Olympus, U-RFL-T). Whole cell voltage-clamp recording was made from granular cell somata or Bergmann glial cells mostly located in 2-5 cerebellar lobules
Pipette resistance for granule cells was typically 10-12 MΩ and pipette was filled with an internal solution containing (in mM) 135 CsCl, 4 NaCl, 0.5 CaCl2, 10 HEPES, 5 EGTA, 2 Mg-ATP, 0.5 Na2-GTP, 10 QX-314, pH adjusted to 7.2 with CsOH (278-285 mOsmol) was used (Rossi, et al., 2003).
B6 wildtype, GFAP-GFP and hGFAP-CreERT2 trangenic mice (SPF room, Center for Neural Science, KIST, Seoul, Korea) were anaesthetized by intraperitoneal injection of 2% avertin (20 μl/g, sigma) and placed in a stereotaxic frame (David Kopf instrument). pSicoR-b1shRNA-mCherry or scrambled virus (Macrogen) was stereo-injected into cerebellar cortex at a rate of 0.2 μl/min (total 2 μl) using syringe pump (Harvard apparatus) and 25 μl syringe (Hamilton company). The coordination of injection site was 1.7 mm from the lambda and the depth was 1.5-1.7 mm from the skull.
The glia-specific CreERT activation was initiated by intraperitoneal injection of tamoxifen for 5 days prior to lentivirus injection (FIG. 4a,b). […] Tamoxifen or sunflower oil were injected intraperitoncally once a day for 5 days before lentivirus injection.

- Anion current in Bergmann glial cells (Best1 channel): decreased
Structure (SMILES): O=C(O)c1cc([N+](=O)[O-])ccc1NCCCc1ccccc1 [NPPB, 5-nitro-2(3-phenylpropylamino)-benzoic acid]
- NPPB sensitive and Best1-mediated tonic GABA release as share of total GABAzine-sensitive current (cerebellar granule cells): about 70%
- Tonic GABA current (cerebellar granule cells; bath application of 50 μM NPPB, 8 wks B6 mice): reduced
- NPPB-sensitive component of tonic GABA current (cerebellar granule cells; naive mice, 50 μM NPPB): 18.95±2.47 pA
